Assay results taken from patent US9505717B2, “Acetic acid ester compound or salt thereof” (Taiho Pharmaceutical Co., Ltd., priority 2012, dated 2016).

Each molecule was assayed on female SD rats (assay: Test Example 1: urethral baseline pressure (intraurethral pressure) in rats after oral administration). Settings: 3 mg/kg oral, 11-week-old female SD rats, n=8, mean for 30 minutes after 8 hours from administration, Student's t-test vs distilled water group, FIG. 1.
Format: in vivo, rat
Experimental: The compounds of the present invention and comparative compounds were individually orally administered in an amount of 3 mg/kg to 11-week-old female SD rats (test substance-administration groups, n=8 for each group), and distilled water was orally administered as the control to 11-week-old female SD rats (solvent administration group, n=8). As the comparative compounds, 4-(1-methylpiperidyl) 2,2-diphenyl-2-propoxyacetate (Comparative Example 1), 4-(1-methylpiperidyl) 2,2-diphenyl-2-(propoxy-1,1,2,2,3,3,3-d7)acetate (Comparative Example 2), which is a deuterated compound of Comparative Example 1, and 4-piperidyl 2,2-diphenyl-2-propoxyacetate (Comparative Example 3), synthesized according to Patent Literatures 1 to 3, respectively, were used.
Seven and a half hours after administration, each rat was anesthetized by intraperitoneal administration of 1.2 g/kg of urethane. Thereafter, the ureters and the area between the urethra and the bladder were ligated, and a vesical fistula catheter and a catheter for measuring intraurethral pressure were inserted and indwelled in the bladder and the urethra. The catheter for measuring intraurethral pressure was inserted from the external urethral orifice. The other end of each catheter was connected to a corresponding pressure transducer branched into two directions via a corresponding three-way stopcock, and the remaining connecting portion of each three-way stopcock was connected to a corresponding syringe set in a continuous injection device. Intravesical pressure and intraurethral pressure were recorded via a polygraph connected with the pressure transducers. […] Physiological saline was injected into the urethra using the micro syringe pump connected to the urethra at 3 mL/hr, and the changes in intraurethral pressure associated with the rhythmic contraction were recorded.
The mean values of the urethral baseline pressure for the solvent administration group and the test substance-administration groups were calculated, and the results were indicated as mean±SE. […]

Structure (SMILES)	urethral baseline pressure (effect versus solvent administration group)
[2H]C([2H])([2H])C([2H])([2H])C([2H])([2H])OC(C(=O)OC1CCN(C)CC1)(c1ccccc1)c1ccccc1 [Comparative Example 2, 4-(1-methylpiperidyl) 2,2-diphenyl-2-(propoxy-1,1,2,2,3,3,3-d7)acetate]	did not have a significant effect on urethral baseline pressure
CCCOC(C(=O)OC1CCN(C)CC1)(c1ccccc1)c1ccccc1 [Comparative Example 1, 4-(1-methylpiperidyl) 2,2-diphenyl-2-propoxyacetate]	did not have a significant effect on urethral baseline pressure
CCCOC(C(=O)OC1CCNCC1)(c1ccccc1)c1ccccc1 [Comparative Example 3, 4-piperidyl 2,2-diphenyl-2-propoxyacetate]	did not have a significant effect on urethral baseline pressure
